In publication PMC3206016, “Putting into Practice Domain-Linear Motif Interaction Predictions for Exploration of Protein Networks” (PLoS ONE, 2011):
Several values for one entry are separate records, joined by “and”; a condition that tells them apart may be missing. Identical values can stand only once. Like-named read-outs stand apart in the source and are kept apart here. Values belong to the sequence of their own block, whether it stands above or below them. Ends that are not written are not given here.

How the values were obtained:
Assay in all cases: SPR binding of MBP-PDZ analyte to immobilised biotinylated peptides
SCRIB-3/4 PDZ domain = target: T1, SCRIB-3/4 PDZ domain (Homo sapiens, UniProt Q14160); conditions: SPR Biacore 2000, 25 C, steady state, 1:1 binding isotherm, MBP-PDZ 0-30 µM, to be considered with caution
T1 construct: cDNA bearing residues 997–1093, 1097–1193 and 997–1193 of human SCRIB (Uniprot acc.: Q14160-1); made in house; host or cells: E. coli BL21 DE3
T1 sequence (Q14160 997-1093 isoform Q14160-1): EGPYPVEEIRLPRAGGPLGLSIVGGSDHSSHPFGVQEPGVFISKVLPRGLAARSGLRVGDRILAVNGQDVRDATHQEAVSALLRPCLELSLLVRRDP
Description: (§1) We opted for the surface plasmon resonance (SPR) method to measure these 190 (19 proteins×2 peptide versions×5 PDZ constructs) interactions. In SPR various concentrations of “analytes” (here, PDZ domains fused to the Maltose Binding Protein (MBP)) flow over surfaces presenting attached “ligands” (here, biotinylated peptides). The amount of analyte interacting with the ligand is measured and quantified in response units (RU). The intensity of this signal is proportional to the binding strength of the assayed interaction (Figure 5A). K [drawing 13] were obtained using a 1∶1 interaction model. However, these calculated K [drawing 14] were rather inaccurate especially for weak interactions. Therefore, we preferred to rank the binding strengths of the 190 interactions using normalised RU signals at equilibrium ( [drawing 15] ) rather than K [drawing 16] (see Methods for details). These normalised [drawing 17] values were plotted in form of a heat map (Figure 5B).
(§2) The cDNA encoding residues 448–572 and 613–752 of mouse MAGI-1 (UniProt acc.: Q6RHR9-1) encoding for MAGI1-2/6 (100% identical to human MAGI1-2/6) and MAGI1-3/6 (99% identical to human MAGI1-3/6) PDZ domains, respectively, were inserted into the NcoI/KpnI sites of the pETM-41 expression vector (EMBL) containing a 6×His-MBP tag followed by a TEV protease cleavage site. A similar cloning strategy was adopted for cDNA bearing residues 997–1093, 1097–1193 and 997–1193 of human SCRIB (Uniprot acc.: Q14160-1) encoding for SCRIB-3/4, SCRIB-4/4 PDZ domains and SCRIB-34/4 tandem PDZ construct, respectively.
(§3) Data were collected on a Biacore 2000 instrument (Biacore AB/GE Healthcare Bio-Sciences Corp., Piscataway, NJ, USA) at 25 [drawing 74] C. SPR experiments (ligand immobilisation and binding measurements) have been performed as described in Fournane et al.. Briefly, biotinylated peptides (instead of GST-fused recombinant peptides) were immobilised on CM5 sensorchips on which Neutravidin was previously attached. The MBP-PDZ domain analyte was injected at 8 to 10 different concentrations ranging from 0 up to 30 [drawing 75] M. Data were processed using the BiaEvaluation 3.2 software (Biacore AB/GE Healthcare Bio-Sciences Corp.) using “double referencing” [78] in which sensorgrams were corrected for buffer effects and bulk refractive index changes.
(§4) The steady-state binding signal ( [drawing 76] ) was derived by averaging the signals in a five second window at equilibrium. Steady-state analysis was performed by fitting the average signal [drawing 77] as a function of total MBP-PDZ concentrations, assuming a simple 1∶1 interaction binding isotherm model. […] Reasons for this inaccuracy are likely to be the following: 1. As previously described, several repetitions of all the measurements are required to determine accurate K [drawing 81] . In our case, such repetitions were not achievable in reasonable time due to the large amount of interactions measured in this study. 2. The highest injected analyte concentration restricts the maximal K [drawing 82] (weakest interaction) that can be accurately obtained. 3. A K [drawing 83] is estimated based on a mathematical extrapolation of observed [drawing 84] signals leading to additional uncertainty. Based on these reasons, we considered the calculated K [drawing 85] not as accurate enough to be used for absolute binding strength comparison in this study. We rather performed a relative analysis of binding strengths using directly [drawing 86] signals which are not biased by any mathematical assumption. We focussed on [drawing 87] signals obtained at 10 [drawing 88] M MBP-PDZ concentration, which have been systematically measured in duplicate. The [drawing 89] signal is directly proportional to the molecular weight of the analyte and the amount of immobilised ligand. Therefore, the [drawing 90] signals were normalised taking those into account before being used for binding strength comparison. […]

[1] = target: T2, SCRIB-34/4 tandem PDZ construct (Homo sapiens, UniProt Q14160); conditions: SPR Biacore 2000, 25 C, steady state, 1:1 binding isotherm, MBP-PDZ 0-30 µM, to be considered with caution
T2 construct: residues 997–1093, 1097–1193 and 997–1193 of human SCRIB (Uniprot acc.: Q14160-1); made in house; host or cells: E. coli BL21 DE3
T2 sequence (Q14160 997-1193 isoform Q14160-1): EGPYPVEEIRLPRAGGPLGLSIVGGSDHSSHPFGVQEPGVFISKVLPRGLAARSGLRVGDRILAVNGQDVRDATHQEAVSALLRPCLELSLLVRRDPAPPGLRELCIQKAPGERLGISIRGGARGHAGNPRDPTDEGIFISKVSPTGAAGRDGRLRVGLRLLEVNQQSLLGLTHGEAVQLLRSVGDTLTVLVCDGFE
Description: as §1, §2, §3, §4

SCRIB-4/4 PDZ domain = target: T3, SCRIB-4/4 PDZ domain (Homo sapiens, UniProt Q14160); conditions: SPR Biacore 2000, 25 C, steady state, 1:1 binding isotherm, MBP-PDZ 0-30 µM, to be considered with caution
T3 construct: residues 997–1093, 1097–1193 and 997–1193 of human SCRIB (Uniprot acc.: Q14160-1); made in house; host or cells: E. coli BL21 DE3
T3 sequence (Q14160 1097-1193 isoform Q14160-1): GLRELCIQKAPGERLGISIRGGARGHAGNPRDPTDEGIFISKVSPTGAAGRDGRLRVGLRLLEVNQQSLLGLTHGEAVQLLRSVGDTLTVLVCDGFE
Description: as §1, §2, §3, §4

MAGI1-2/6 PDZ domain = target: T4, MAGI1-2/6 PDZ domain (Mus musculus, UniProt Q6RHR9)
T4 construct: The cDNA encoding residues 448–572 and 613–752 of mouse MAGI-1 (UniProt acc.: Q6RHR9-1) encoding for MAGI1-2/6; made in house; host or cells: E. coli BL21 DE3
Description: as §1, §2, §3, §4

MAGI1-3/6 PDZ domain = target: T5, MAGI1-3/6 PDZ domain (Mus musculus, UniProt Q6RHR9); conditions: SPR Biacore 2000, 25 C, steady state, 1:1 binding isotherm, MBP-PDZ 0-30 µM, to be considered with caution
T5 construct: The cDNA encoding residues 448–572 and 613–752 of mouse MAGI-1 (UniProt acc.: Q6RHR9-1); made in house; host or cells: E. coli BL21 DE3
Description: as §1, §2, §3, §4

[2] = SPR Biacore 2000, 25 C, steady state, 1:1 binding isotherm, MBP-PDZ 0-30 µM, to be considered with caution, read-out: tentative KD

T5 sequence (Q6RHR9 613-752): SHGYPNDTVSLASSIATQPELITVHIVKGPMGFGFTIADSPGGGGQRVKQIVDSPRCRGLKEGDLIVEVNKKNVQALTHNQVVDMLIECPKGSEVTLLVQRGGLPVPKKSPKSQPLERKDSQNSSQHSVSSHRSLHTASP
T4 sequence (Q6RHR9 448-572): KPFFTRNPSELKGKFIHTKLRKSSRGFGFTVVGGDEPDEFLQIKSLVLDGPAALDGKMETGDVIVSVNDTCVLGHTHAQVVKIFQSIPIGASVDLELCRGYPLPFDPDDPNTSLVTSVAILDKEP

Sequence: GGWVEKETYY [ATP1A1_10]
Kd (SCRIB-3/4 PDZ domain; read-out: tentative KD): 88 µM

Sequence: KDECVIATEV [DLL1_10]
Kd (SCRIB-4/4 PDZ domain; read-out: tentative KD): 88 µM

Sequence: KPGKGSETVV [FZD4_10]
Kd (MAGI1-2/6 PDZ domain; [2]): 23 µM

Sequence: NPDALPETLV [ARHGAP6_10]
Kd (MAGI1-2/6 PDZ domain; [2]): 18 µM

Sequence: NRVDSKETEC [ADAM17_10]
Kd ([1]; read-out: tentative KD): 8 µM

Sequence: QDEKVKESYV [ABC1_10]
Kd ([1]; read-out: tentative KD): 8 µM

Sequence: RSSRTRRETQV [16E6L/V, reference compound]
Kd (MAGI1-3/6 PDZ domain; tentative KD): 69 µM and 76 µM and 202 µM | Kd ([1]; tentative KD): 3 µM and 4 µM | Kd (SCRIB-3/4 PDZ domain; tentative KD): 18 µM and 41 µM and 32 µM | Kd (SCRIB-4/4 PDZ domain; tentative KD): 47 µM and 55 µM

Sequence: SGGKRKETLV [NET1_10]
Kd (MAGI1-3/6 PDZ domain; read-out: tentative KD): 37 µM | Kd (MAGI1-2/6 PDZ domain; Table S3, column this study, SPR, read-out: this study (Kd)): 3 µM

Sequence: SVWLRKETRV [CYSLTR2_10]
Kd ([1]; read-out: tentative KD): 15 µM | Kd (SCRIB-4/4 PDZ domain; read-out: tentative KD): 202 µM

The remaining lines, values ahead:

Kd ([1]; read-out: tentative KD): 4 µM
Sequence: GSGAGSETSV [VANG2_05]

Kd (MAGI1-3/6 PDZ domain; read-out: tentative KD): 37 µM
Sequence: PMESGICTIV [TTC24_10]

Kd ([1]; read-out: tentative KD): 9 µM
Sequence: QGRWDHETIV [TMEM215_10]

Kd ([1]; read-out: tentative KD): 5 µM | Kd (SCRIB-3/4 PDZ domain; read-out: tentative KD): 12 µM
Sequence: VMRLQSETSV [VANG2_10]
